Tests used:
[1] = test system: Tetranychus urticae; experiment: Tetranychus urticae spray test, OP-resistant (TETRUR); type: in vivo; settings: after 6 days
Procedure, shortened: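 Bean leaf discs infested with all stages of an OP-resistant Tetranychus urticae strain sprayed with compound in acetone/DMF with alkylaryl polyglycol ether emulsifier, diluted in water. Efficacy in % scored after 6 days; 100% means all mites killed.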

[2] = log P by HPLC (OECD Guideline 117), method [a] acidic range; type: physicochemical; settings: for logP[a]: HPLC, method [a] acidic range; for chromatographic logP: reversed-phase C18 HPLC column, acidic range
Description: (§1) The log P values were determined analogously to OECD Guideline 117 (EC Directive 92/69/EEC) by HPLC (high-performance liquid chromatography) using reversed-phase columns (C 18), by the following methods:
[a] The LC-MS determination in the acidic range is effected at pH 2.7 with 0.1% aqueous formic acid and acetonitrile (contains 0.1% formic acid) as eluents; linear gradient from 10% acetonitrile to 95% acetonitrile.

[3] = log P by HPLC (OECD Guideline 117), method [b] neutral range; type: physicochemical; settings: HPLC; for logP[b]: method [b] neutral range
Description: as §1
[b] The LC-MS determination in the neutral range is effected at pH 7.8 with 0.001 molar aqueous ammonium hydrogencarbonate solution and acetonitrile as eluents; linear gradient from 10% acetonitrile to 95% acetonitrile.

Row | Structure (SMILES) | efficacy ([1]; application rate of 500 g/ha) [%] | logP[a] [2] | logP[b] [3] | efficacy ([1]; application rate of 100 g/ha) [%] | pest or weed control at 500 g/ha ([1]; Tetranychus urticae, 144 h, application rate of 500 g/ha, read-out: efficacy) [%] | chromatographic logP ([2]; pH 2.7, HPLC method [a], read-out: logP[a]) | chromatographic logP ([2]; pH 2.7, HPLC, pH 2.7, read-out: log P[a]) | chromatographic logP ([3]; reversed-phase C18 HPLC column, neutral range, pH 7.8)
1 | CCCCc1nn(-c2cc([S+]([O-])CC(F)(F)F)c(C)cc2F)c(=O)n1C1CC1 (racemic) [Example 72] | 90 | 2.94 | 2.88 |  |  |  |  | 
2 | CCCCOc1nn(-c2ccc(C)c(SCC(F)(F)F)c2)c(=O)n1C1CC1 [Example 126] | 90 | 5.11 | 5.02 |  |  |  |  | 
3 | COc1cc(F)c(-n2nc(OCC(F)(F)F)n(C3CC3)c2=O)cc1SCC(F)(F)F [Example 188] |  | 3.49 | 3.46 | 90 |  |  |  | 
4 | CCC(C)Oc1nn(-c2cc([S+]([O-])CC(F)(F)F)c(C)cc2F)c(=O)n1C1CC1 (stereo not shown) [Example 141] | 90 | 3.18 | 3.12 |  |  |  |  | 
5 | Cc1cc(F)c(-n2nc(SCC(F)(F)F)n(C)c2=O)cc1[S+]([O-])CC(F)(F)F (racemic) [Example 282] | 100 | 2.57 | 2.52 |  |  |  |  | 
6 | CCCSc1nn(-c2cc([S+]([O-])CC(F)(F)F)c(C)cc2F)c(=O)n1C (stereo not shown) [Example 278] | 100 | 2.80 | 2.74 |  |  |  |  | 
7 | COc1nn(-c2cc([S+]([O-])CC(F)(F)F)c(C)cc2F)c(=O)n1C1CC1 (single isomer, unassigned) [Example 380] | 100 | 2.14 | 2.09 |  |  |  |  | 
8 | COCc1nn(-c2cc([S+]([O-])CC(F)(F)F)c(C)cc2F)c(=O)n1N (stereo not shown) [Example 207] | 100 | 1.47 | 1.45 |  |  |  |  | 
9 | CCn1c([S+]([O-])CC)nn(-c2cc([S+]([O-])CC(F)(F)F)c(C)cc2F)c1=O (stereo not shown) [Example 252] | 100 | 1.90 | 1.87 |  |  |  |  | 
10 | COCCc1nn(-c2cc(SCC(F)(F)F)c(C)cc2F)c(=O)n1C1CC1 [Example 75] | 100 | 2.97 | 2.89 |  |  |  |  | 
11 | Cc1cc(F)c(-n2nc([S+](C)[O-])n(C)c2=O)cc1[S+]([O-])CC(F)(F)F (stereo not shown) [Example 233] | 100 | 1.47 | 1.44 |  |  |  |  | 
12 | CCn1ccn(-c2cc(SCC(F)(F)F)c(C)cc2F)c1=O [Example 486, 1-Ethyl-3-{2-fluoro-4-methyl-5-[(2,2,2-trifluoroethyl)sulphanyl]phenyl}-1,3-dihydro-2H-imidazol-2-one] |  |  |  |  | 100 | 2.84 | 2.84 | 2.79
13 | COc1nn(-c2cc([S+]([O-])CC(F)(F)F)c(F)cc2F)c(=O)n1C1CC1 (stereo not shown) [Example 170] | 100 | 2.15 | 2.11 |  |  |  |  | 
14 | COCc1nn(-c2cc([S+]([O-])CC(F)(F)F)c(C)cc2F)c(=O)o1 (racemic) [Example 453] | 100 | 2.08 | 2.10 |  |  |  |  | 
15 | CCCn1c(OC)nn(-c2cc(SCC(F)(F)F)c(C)cc2F)c1=O [Example 389] | 90 | 3.53 | 3.46 |  |  |  |  | 
16 | CCCSc1nn(-c2cc(SCC(F)(F)F)c(C)cc2F)c(=O)n1C [Example 277] | 100 | 3.90 | 3.86 |  |  |  |  | 
17 | Cc1cc(F)c(-n2nc(CCOC(C)C)n(C3CC3)c2=O)cc1[S+]([O-])CC(F)(F)F (stereo not shown) [Example 362] | 90 | 2.63 | 2.61 |  |  |  |  | 
18 | Cc1cc(F)c(-n2nc(SC(F)(F)F)n(C3CC3)c2=O)cc1[S+]([O-])CC(F)(F)F (stereo not shown) [Example 264] | 100 | 3.05 | 2.98 |  |  |  |  | 
19 | Cc1cc(F)c(-n2nc(SCC(F)(F)F)n(C3CC3)c2=O)cc1SCC(F)(F)F [Example 254] | 90 | 3.89 | 3.84 |  |  |  |  | 
20 | Cc1cc(F)c(-n2nc(SC(C)C)n(C3CC3)c2=O)cc1SCC(F)(F)F [Example 268] | 100 | 4.37 | 4.28 |  |  |  |  | 
21 | CCCCc1nn(-c2cc(SCC(F)(F)F)c(C)cc2F)c(=S)n1C1CC1 [Example 495] | 100 | 4.52 | 4.43 |  |  |  |  | 
22 | Cc1cc(F)c(-n2nc(OC(C)C)n(C3CC3)c2=O)cc1[S+]([O-])CC(F)(F)F (stereo not shown) [Example 100] | 100 | 2.82 | 2.79 |  |  |  |  | 
23 | CCCOc1nn(-c2cc(SCC(F)(F)F)c(C)cc2F)c(=O)n1C [Example 127] | 100 | 3.61 | 3.57 |  |  |  |  | 
24 | CCC[S+]([O-])c1nn(-c2cc([S+]([O-])CC(F)(F)F)c(C)cc2F)c(=O)n1CC (stereo not shown) [Example 251] | 100 | 2.22 | 2.18 |  |  |  |  | 

Row | Structure (SMILES) | efficacy ([1]; application rate of 500 g/ha) [%] | logP[a] [2] | logP[b] [3] | efficacy ([1]; application rate of 100 g/ha) [%] | pest or weed control at 500 g/ha ([1]; Tetranychus urticae, 144 h, application rate of 500 g/ha, read-out: efficacy) [%] | chromatographic logP ([2]; pH 2.7, HPLC method [a], read-out: logP[a]) | chromatographic logP ([2]; pH 2.7, HPLC, pH 2.7, read-out: log P[a]) | chromatographic logP ([3]; reversed-phase C18 HPLC column, neutral range, pH 7.8)
25 | Cc1cc(F)c(-n2nc(C)n(-c3ccccc3)c2=O)cc1[S+]([O-])CC(F)(F)F (racemic) [Example 356] | 100 | 2.38 | 2.35 |  |  |  |  | 
26 | Cc1cc(F)c(N2C(=O)C=C(Br)C2=O)cc1SCC(F)(F)F [Example 337] | 90 | 3.91 | 3.50 |  |  |  |  | 
27 | Cc1cc(F)c(-n2ncn(Cc3ccccc3)c2=O)cc1[S+]([O-])CC(F)(F)F (stereo not shown) [Example 370] | 100 | 2.35 | 2.36 |  |  |  |  | 
28 | Cc1cc(F)c(-n2nc(C3CCCC3)n(C3CC3)c2=O)cc1[S+]([O-])CC(F)(F)F (stereo not shown) [Example 360] | 90 | 3.06 | 3.03 |  |  |  |  | 
29 | CCc1nn(-c2cc([S+]([O-])CC(F)(F)F)c(C)cc2F)c(=O)n1C1CC1 (racemic) [Example 78] | 100 | 2.20 | 2.15 |  |  |  |  | 
30 | COn1c(C)nn(-c2cc([S+]([O-])CC(F)(F)F)c(C)cc2F)c1=O (stereo not shown) [Example 226] | 100 | 1.76 | 1.74 |  |  |  |  | 
31 | Cc1cc(F)c(-n2nc(C)n(N(C)C)c2=O)cc1SCC(F)(F)F [Example 201] | 100 | 3.17 | 3.14 |  |  |  |  | 
32 | CCCOc1nn(-c2cc([S+]([O-])CC(F)(F)F)c(C)cc2F)c(=O)n1C1CC1 (stereo not shown) [Example 112] | 90 | 2.83 | 2.79 |  |  |  |  | 
33 | CCCCOC1=CC(=O)N(c2cc([S+]([O-])CC(F)(F)F)c(C)cc2F)C1 (stereo not shown) [Example 326] | 90 | 2.91 | 2.88 |  |  |  |  | 
34 | Cc1cc(C)c(-n2nc(OCC(F)(F)F)n(C3CC3)c2=O)cc1SCC(F)(F)F [Example 377] | 100 | 4.01 | 3.92 |  |  |  |  | 
35 | CCOCc1nn(-c2cc([S+]([O-])CC(F)(F)F)c(C)cc2F)c(=O)n1C1CC1 (racemic) [Example 74] | 100 | 2.31 | 2.25 |  |  |  |  | 
36 | CCn1c([S+](C)[O-])nn(-c2cc(SCC(F)(F)F)c(C)cc2F)c1=O (stereo not shown) [Example 240] | 100 | 2.53 | 2.46 |  |  |  |  | 
37 | COn1c(C(C)C)nn(-c2cc([S+]([O-])CC(F)(F)F)c(C)cc2F)c1=O (stereo not shown) [Example 419] | 100 | 2.46 | 2.42 |  |  |  |  | 
38 | Cc1cc(F)c(-n2nc(C(C)C)n(N)c2=O)cc1[S+]([O-])CC(F)(F)F (stereo not shown) [Example 204] | 100 | 1.96 | 1.95 |  |  |  |  | 
39 | Cc1cc(Cl)c(-n2nc(OCC(C)(C)C)n(C3CC3)c2=O)cc1[S+]([O-])CC(F)(F)F (stereo not shown) [Example 404] | 100 | 3.79 | 3.71 |  |  |  |  | 
40 | CCc1nn(-c2cc(SCC(F)(F)F)c(C)cc2F)c(=O)o1 [Example 455] | 100 | 3.53 | 3.46 |  |  |  |  | 
41 | Cc1cc(F)c(-n2nc(C(C)C)n(N)c2=O)cc1S(=O)(=O)CC(F)(F)F [Example 417] | 100 | 2.25 | 2.21 |  |  |  |  | 
42 | CCSc1nn(-c2cc(SCC(F)(F)F)c(C)cc2F)c(=O)n1CC [Example 292] | 100 | 3.91 | 3.86 |  |  |  |  | 
43 | COCc1nn(-c2cc(SCC(F)(F)F)c(C)cc2F)c(=S)n1C1CC1 [Example 492] | 100 | 3.49 | 3.43 |  |  |  |  | 
44 | COc1ccccc1-c1nn(-c2cc(SCC(F)(F)F)c(C)cc2F)c(=O)n1C1CC1 [Example 366] | 100 | 3.77 | 3.71 |  |  |  |  | 
45 | CCOc1nn(-c2ccc(C)c(SCC(F)(F)F)c2)c(=O)n1C1CC1 [Example 122] | 100 | 4.19 | 4.04 |  |  |  |  | 
46 | Cc1cc(Cl)c(-n2nc(OCC(C)(C)C)n(C3CC3)c2=O)cc1SCC(F)(F)F [Example 396] | 100 | 4.92 | 4.85 |  |  |  |  | 
47 | O=c1n(-c2ccc(Cl)c(SCC(F)(F)F)c2)nc(C(F)(F)F)n1C1CC1 [Example 51] | 90 | 4.43 | 4.39 |  |  |  |  | 
